Data on eight molecules can be found in patent US20250163078A1, “IMIDAZOPYRIDAZINE DERIVATIVE, AND PREPARATION METHOD THEREFOR, PHARMACEUTICAL COMPOSITION THEREOF AND USE THEREOF” (SHANGHAI SIMR BIOTECHNOLOGY CO., LTD., priority 2022, published 2025).

The structures appear in SMILES notation. pKi: −log10 of the molar value. Read-outs that look alike come from different tables or passages of the source.

The term pKi denotes −log10 of the Ki, conventionally taken in molar units.

Data set [1] concerns the target T1, α2-GABAA receptor (Homo sapiens, UniProt P18507+P47869).
T1 construct: expressed in transfected cells
Description: Radioligand (3H-flunitrazepam) competitive binding assay at the BZD site. The source says:
(§1) An α subunit, a β subunit, and a γ subunit are essential for the formation of a complete functional GABAA receptor. […] The α1-GABAAR-HEK293 cell model simultaneously expressed the α1 subunit (protein sequence available in GenBank with an accession No.: NM_000806.5), the β3 subunit (protein sequence available in GenBank with an accession No.: NM_000814.5), and the γ2 subunit (protein sequence available in GenBank with an accession No.: NM_000816.3). The α2-GABAAR-HEK293 cell model simultaneously expressed the α2 subunit (protein sequence available in GenBank with an accession No.: NM_000807.4), the β3 subunit (protein sequence available in GenBank with an accession No.: NM_000814.5), and the γ2 subunit (protein sequence available in GenBank with an accession No.: NM_000816.3).
(§2) The above cell lines were subcultured. The α2-GABAAR-HEK293 cells were expanded for assay of the benzodiazepine (BZD) site affinity of compounds for GABAA receptors.
The affinity of the compounds for the α2-GABAA receptor was determined by competing with ^3H-flunitrazepam (isotope ^3H-labelled flunitrazepam) for binding to the BZD site on the membrane proteins of HEK293 cells stably expressing the human α2-GABAA receptor.
Membrane preparation: The cells were suspended in 50 mM Tris-HCl buffer (pH=7.4), homogenized 10 times (20 s for each time) with a homogenizer on ice, and then centrifuged at 4° C. at 1000 g for 10 min. The supernatant was taken. The above steps were repeated. The supernatant was centrifuged (33800 g; Thermo, rotor: A27-8×50) at 4° C. for 60 min. The pellet was resuspended in Tris buffer (50 mM Tris-HCl, 10 mM MgCl2, 0.5 mM EDTA, and 10% glycerol). The protein content was determined (BCA (bicinchoninic acid) protein quantification assay based on the copper ion reduction method, with a BCA kit purchased from Pierce (Annoron (Beijing) Biotechnology Co., Ltd.)), and 1 mL aliquots were prepared and stored at −80° C.
Radioligand competitive binding assay: This assay was performed in a 200 μL system (96-well plate) containing 100 μL of cell membranes. The concentration of ^3H-flunitrazepam was 1 nM, and the concentrations of the test compounds were in the range of […]. Flumazenil was used as a control. To each low control (LC) well was added 1 μL of 2 mM flumazenil (the final concentration of 10 μM), and to each high control (HC) well was added 1 μL of dimethyl sulfoxide. The final concentration of the target membrane protein was […]. All sample stock solutions of test compounds were 10 mM solutions in dimethyl sulfoxide. All the samples were diluted to a concentration of 0.2 mM with dimethyl sulfoxide, and then subjected to a 4-fold serial dilution to give a total of 8 working concentration gradients. The 96-well plate was sealed with a plate sealing membrane and then incubated on a shaker at room temperature for 1 h. Meanwhile, a GF/C filter plate was soaked in a plate soaking buffer (0.3% PEI (polyethyleneimine, purchased from: Sigma-Aldrich, model: P314), stored at 4° C.) for at least 0.5 h. After the binding incubation was completed, the cells were harvested onto the GF/C filter plate using a cell harvester and washed 4 times with a washing buffer (50 mM Tris-HCl, pH 7.4, stored at 4° C.). After drying in an oven at 50° C. for 1 h, the dried GF/C filter plate was bottom-sealed. The residual radioactivity on the filter membrane was detected by liquid scintillation counting. Scintillation fluid was added at 50 µL/well, and then the plate was sealed. Readings were taken using Microbeta^2 (microplate counter, purchased from: PerkinElmer, model: CNLL0153). The inhibitory activity of the test samples on the binding of ^3H-flunitrazepam to the GABAA receptor membrane protein was calculated.

Another data set deals with T2, α1-GABAA receptor (Homo sapiens, UniProt P14867+P18507).
T2 construct: expressed in transfected cells
The data set can be described thus: Whole-cell patch-clamp electrophysiological test of positive allosteric modulation, α1-GABAAR-HEK293 cells. Format: cell-based. To be noted: read-out: Positive allosteric modulation activity on α1-GABAAR.
Excerpt: as §1, §2
(§3) The positive regulation activity of the test drugs on the α1-GABAA receptor and the α2-GABAA receptor was detected by the electrophysiological method. The specific method was as follows:
(§4) Compound concentration setting: the final concentration of the compounds used for screening was 100 nM. […] The components of the extracellular solution (ECS) for electrophysiology were as follows: 150 mM NaCl, 5 mM KCl, 2.5 mM CaCl2, 1 mM MgCl2, 10 mM HEPES, and 10 mM glucose (pH 7.4); the formulation of the intracellular solution (ICS) of electrodes for electrophysiology was as follows: 140 mM CsCl, 11 mM EGTA, 10 mM HEPES, 2 mM CaCl2, 1 mM MgCl2, 4 mM MgATP, and 2 mM TEA (pH 7.3). GABA (γ-aminobutyric acid) powder was prepared into a mother liquor with pure water, which was then diluted in ECS; the compounds were first prepared into 4 mM mother liquors with dimethyl sulfoxide and then gradually diluted to corresponding concentrations in GABA-ECS. The solutions were all prepared freshly prior to the electrophysiological test.
(§5) Electrophysiological signal acquisition was performed using an EPC 10 amplifier and PatchMaster software (HEKA) or an Axon700B amplifier and Clampex software (AXON).
(§6) The recording electrode was made by pulling borosilicate glass, with an electrode resistance of 4-6 MΩ. Extracellular administration was performed using the ALA-VC-8PG™ system. A single, independently growing cell was selected. After the glass electrode formed a good seal with the cell, the membrane was ruptured to form the whole-cell configuration. The cell membrane potential was clamped at −60 mV and recorded in Gap-free mode. During the test, the extracellular solution was first applied extracellularly for about 20 s. After the baseline (Iprebaseline) stabilized, the extracellular solution was switched to GABA-ECS. At this time, the current caused by GABA (Igaba) could be detected. After about 10-20 s, when the current stabilized, the extracellular solution was switched to a mixed solution of the compound and GABA-ECS. At this point, the current caused by both the compound and GABA (Itreatment) could be detected. Finally, the solution was switched to the extracellular solution, and the test was terminated after recording for 20-40 s.
(§7) The current values at each stage were calculated based on the average value of the current after stabilization under the corresponding conditions. We defined the control current as Igaba−Iprebaseline, and the current after compound treatment as Itreatment−Iprebaseline. The allosteric modulation activity of the compounds was expressed as a percentage, calculated by the following formula: functional activity=[(Itreatment−Igaba)/(Igaba−Iprebaseline)]×100%.
On the technique in general: The patch-clamp technique gives a direct electrical read-out from membranes.

For data set [2], the target named is T1, α2-GABAA receptor. The data set can be described thus: Whole-cell patch-clamp electrophysiological test of positive allosteric modulation, α2-GABAAR-HEK293 cells. Format: cell-based. To be noted: read-out: Positive allosteric modulation activity on α2-GABAAR.
Excerpt: as §1, §2, §3, §4, §5, §6, §7

In data set [3] the test system is Chinese hamster ovary cells (CHO-WBL cells). Description: In vitro micronucleus assay. In kind it is cell-based. To be noted: 3 h with S9, 3 h without S9, 24 h without S9, overall judgment positive/negative. The source says: The cell stock solution was stored in liquid nitrogen. The karyotype of each batch of cell stock solution was identified, and tests confirmed that it was free from mycoplasma contamination. The number of passages after cell cloning will not exceed 15.
Immediately before use, the S9 homogenate was thawed, and the components of the S9 metabolic activation system were mixed in the proportions shown in Table 2 below.
Dose exploration experiment: In the dose exploration experiment, 8 administration concentrations were established in each administration treatment series. For each concentration of the test substance, 1 well of cells was set up.

[4] abbreviates: membranes of HEK293 cells stably expressing human α2-GABAA receptor (α2β3γ2), 1 nM 3H-flunitrazepam, Ki calculated from IC50, read-out: α2 Ki.
[5] abbreviates: compound 100 nM, GABA about EC2-4, normalised to positive compound CVL-865 (=100%), negative value = reverse allosteric modulation.
The mark [6] stands for this setting: compound 100 nM, GABA 0.10-0.11 M [sic] (about EC70.8), normalised to positive compound CVL-865 (=100%).

On α2-GABAA receptor [1], `CCn1cnc2c(-c3ccc(F)c(-c4cn5cc(C6CC6)nc5cc4OC)c3)cnnc21` [Example 37, 4-(3-(2-Cyclopropyl-7-methoxyimidazo[1,2-a]pyridin-6-yl)-4-fluorophenyl)-7-ethyl-7H-imidazo[4,5-c]pyridazine] showed a pKi of 8.19. In addition, the activation at 0.1 µM at α1-GABAA receptor was determined as 74%; at α2-GABAA receptor [2], 79%. Besides, the “Results of in vitro micronucleus assay” value in data set [3] was “Negative”.

As for `CCn1cnc2c(-c3ccc(F)c(-c4ccc(S(=O)(=O)CC)cc4OC)c3)cnnc21` [CVL-865, reference compound], the activation at 0.1 µM on α1-GABAA receptor and at α2-GABAA receptor [2] was 100% in each case. The “Results of in vitro micronucleus assay” value in data set [3] was “Positive”.

As to `CCn1cnc2c(-c3ccc(F)c(-c4cn5cc(C6CCOCC6)nc5cc4OC)c3)cnnc21` [Example 36, 7-Ethyl-4-(4-fluoro-3-(7-methoxy-2-(tetrahydro-2H-pyran-4-yl)imidazo[1,2-a]pyridin-6-yl)phenyl)-7H-imidazo[4,5-c]pyridazine], the negative-log Ki (pKi) at α2-GABAA receptor [1] (setting [4]) was 7.93. Further, the results for the activation at 0.1 µM on α1-GABAA receptor (setting [5]) and at α2-GABAA receptor [2] (setting [6]) were 49% and 89%, respectively.

Take `CCn1cnc2c(-c3ccc(F)c(-c4ccn5c(C(C)C)nnc5c4OC)c3)cnnc21` [Example 29, 7-Ethyl-4-(4-fluoro-3-(8-methoxy-3-isopropyl-[1,2,4]triazolo[4,3-a]pyridin-7-yl)phenyl)-7H-imidazo[4,5-c]pyridazine]: on α2-GABAA receptor [1] (setting [4]), the negative logarithm of the Ki (pKi) was 8.18. For the same molecule, the activation at 0.1 µM on α1-GABAA receptor (setting [5]) was -51%; on α2-GABAA receptor [2] (setting [6]) it was 156%.

For `CCn1cnc2c(-c3ccc(F)c(-c4ccn5c(C)cnc5c4COC)c3)cnnc21` [Example 54, 7-Ethyl-4-(4-fluoro-3-(8-(methoxymethyl)-3-methylimidazo[1,2-a]pyridin-7-yl)phenyl)-7H-imidazo[4,5-c]pyridazine], the negative-log Ki (pKi) at α2-GABAA receptor [1] (setting [4]) was 8.53. Also, the figures for the activation at 0.1 µM at α1-GABAA receptor (setting [5]) and on α2-GABAA receptor [2] (setting [6]) were 47% and 100%, respectively.

Regarding `CCn1cnc2c(-c3ccc(F)c(-c4ccn5c(C6CC6)nnc5c4OC)c3)cnnc21` [Example 38, 4-(3-(3-Cyclopropyl-8-methoxy-[1,2,4]triazolo[4,3-a]pyridin-7-yl)-4-fluorophenyl)-7-ethyl-7H-imidazo[4,5-c]pyridazine], the pKi at α2-GABAA receptor [1] (setting [4]) was 8.19. Besides, the values for the activation at 0.1 µM at α1-GABAA receptor (setting [5]) and on α2-GABAA receptor [2] (setting [6]) were -14% and 94%, respectively.

On to `CCn1cnc2c(-c3ccc(F)c(-c4ccn5c(C6CC6)nnc5c4COC)c3)cnnc21` [Example 1, 4-(3-(3-Cyclopropyl-8-(methoxymethyl)-[1,2,4]triazolo[4,3-a]pyridin-7-yl)-4-fluorophenyl)-7-ethyl-7H-imidazo[4,5-c]pyridazine], for which the pKi on α2-GABAA receptor [1] (setting [4]) is 7.98. The activation at 0.1 µM on α1-GABAA receptor (setting [5]) was determined as 70%; at α2-GABAA receptor [2] (setting [6]), 129%.

On to `CCc1cn2cc(-c3cc(-c4cnnc5c4ncn5CC)ccc3F)c(OC)cc2n1` [Example 30, 7-Ethyl-4-(3-(2-ethyl-7-methoxyimidazo[1,2-a]pyridin-6-yl)-4-fluorophenyl)-7H-imidazo[4,5-c]pyridazine], for which, on α2-GABAA receptor [1] (setting [4]), the negative logarithm of the Ki (pKi) was 7.92. The activation at 0.1 µM on α1-GABAA receptor (setting [5]) stood at 6%; on α2-GABAA receptor [2] (setting [6]), 143%.
